Laboratory results as given in ChEMBL document CHEMBL1649467, “Impact of human serum albumin on oritavancin in vitro activity against enterococci” (Antimicrob Agents Chemother, 2009).
In brackets after ≈: the same amount, converted by molar mass.

Key:
Enterococcus faecalis [1] = test: Bactericidal activity against vancomycin-susceptible Enterococcus faecalis ATCC 29212 assessed as change in bacterial count at 4 ug/ml by time-kill assay; assay type: functional
Enterococcus faecium [2] = test: Antimicrobial activity against vancomycin-resistant Enterococcus faecium ATCC 51559 by broth dilution method; assay type: functional
Enterococcus faecalis [3] = test: Bactericidal activity against vancomycin-resistant Enterococcus faecalis 1058946 expressing vanA gene assessed as change in bacterial count at 4 ug/ml by time-kill assay; assay type: functional
Enterococcus faecium [4] = test: Bactericidal activity against vancomycin-resistant Enterococcus faecium 1059060 expressing vanA gene assessed as change in bacterial count at 4 ug/ml by time-kill assay; assay type: functional
Enterococcus faecium [5] = test: Antimicrobial activity against vancomycin-resistant Enterococcus faecium 1119175 by broth dilution method in presence of 4% HSA; assay type: functional
Enterococcus faecalis [6] = test: Bactericidal activity against vancomycin-resistant Enterococcus faecalis ATCC 51299 expressing vanB gene assessed as change in bacterial count at 64 ug/ml by time-kill assay; assay type: functional
Enterococcus faecalis [7] = test: Selectivity ratio of MIC for Enterococcus faecalis ATCC 29212 in presence of 4% HSA to MIC for Enterococcus faecalis ATCC 29212; assay type: functional
Enterococcus faecalis [8] = test: Antimicrobial activity against vancomycin-resistant Enterococcus faecalis ATCC 51299 by broth dilution method in presence of 4% HSA; assay type: functional
Enterococcus faecium [9] = test: Selectivity ratio of MIC for Enterococcus faecium 1119175 in presence of 4% HSA to MIC for Enterococcus faecium 1119175; assay type: functional
Enterococcus faecalis [10] = test: Selectivity ratio of MIC for Enterococcus faecalis ATCC 51299 in presence of 4% HSA to MIC for Enterococcus faecalis 51299; assay type: functional
Enterococcus faecalis [11] = test: Bactericidal activity against vancomycin-resistant Enterococcus faecalis 1058946 expressing vanA gene assessed as change in bacterial count at 64 ug/ml by time-kill assay; assay type: functional
Enterococcus faecalis [12] = test: Selectivity ratio of MIC for Enterococcus faecalis 1058946 in presence of 4% HSA to MIC for Enterococcus faecalis 1058946; assay type: functional
Enterococcus faecalis [13] = test: Antimicrobial activity against vancomycin-susceptible Enterococcus faecalis ATCC 29212 by broth dilution method in presence of 4% HSA; assay type: functional
Enterococcus faecium [14] = test: Antimicrobial activity against vancomycin-resistant Enterococcus faecium 1119175 by broth dilution method; assay type: functional
[15] = Free fraction in healthy human male at 4 mg/kg, iv every 24 hrs by LC/MS/MS analysis; assay type: ADME, organism-based; design: dose 4 mg/kg, route intravenous; settings: in vivo
Enterococcus faecalis [16] = test: Antimicrobial activity against vancomycin-resistant Enterococcus faecalis 1058946 by broth dilution method in presence of 4% HSA; assay type: functional
Enterococcus faecium [17] = test: Antimicrobial activity against vancomycin-resistant Enterococcus faecium 1059060 by broth dilution method in presence of 4% HSA; assay type: functional
Enterococcus faecium [18] = test: Antimicrobial activity against vancomycin-resistant Enterococcus faecium ATCC 51559 by broth dilution method in presence of 4% HAS; assay type: functional
Enterococcus faecium [19] = test: Antimicrobial activity against vancomycin-resistant Enterococcus faecium 1059060 by broth dilution method; assay type: functional
Enterococcus faecium [20] = test: Bactericidal activity against vancomycin-resistant Enterococcus faecium 1059060 expressing vanA gene assessed as change in bacterial count at 64 ug/ml by time-kill assay; assay type: functional
Enterococcus faecium [21] = test: Bactericidal activity against vancomycin-resistant Enterococcus faecium ATCC 51559 expressing vanA gene assessed as change in bacterial count at 64 ug/ml by time-kill assay; assay type: functional
Enterococcus faecalis [22] = test: Antimicrobial activity against vancomycin-resistant Enterococcus faecalis 1058946 by broth dilution method; assay type: functional
Enterococcus faecium [23] = test: Bactericidal activity against vancomycin-resistant Enterococcus faecium 1119175 expressing vanB gene assessed as change in bacterial count at 4 ug/ml by time-kill assay; assay type: functional
Enterococcus faecium [24] = test: Selectivity ratio of MIC for Enterococcus faecium 1059060 in presence of 4% HSA to MIC for Enterococcus faecium 1059060; assay type: functional
Enterococcus faecalis [25] = test: Bactericidal activity against vancomycin-resistant Enterococcus faecalis ATCC 51299 expressing vanB gene assessed as change in bacterial count at 4 ug/ml by time-kill assay; assay type: functional
[26] = Cmax in healthy human male at 4 mg/kg, iv every 24 hrs by LC/MS/MS analysis; assay type: ADME, organism-based; design: dose 4 mg/kg, route intravenous; settings: in vivo
Enterococcus faecalis [27] = test: Antimicrobial activity against vancomycin-susceptible Enterococcus faecalis ATCC 29212 by broth dilution method; assay type: functional
Enterococcus faecium [28] = test: Bactericidal activity against vancomycin-resistant Enterococcus faecium ATCC 51559 expressing vanA gene assessed as change in bacterial count at 4 ug/ml by time-kill assay; assay type: functional
Enterococcus faecium [29] = test: Selectivity ratio of MIC for Enterococcus faecium ATCC 51559 in presence of 4% HSA to MIC for Enterococcus faecium ATCC 51559; assay type: functional
Enterococcus faecalis [30] = test: Antimicrobial activity against vancomycin-resistant Enterococcus faecalis ATCC 51299 by broth dilution method; assay type: functional
Enterococcus faecalis [31] = test: Bactericidal activity against vancomycin-susceptible Enterococcus faecalis ATCC 29212 assessed as change in bacterial count at 64 ug/ml by time-kill assay; assay type: functional
Enterococcus faecium [32] = test: Bactericidal activity against vancomycin-resistant Enterococcus faecium 1119175 expressing vanB gene assessed as change in bacterial count at 64 ug/ml by time-kill assay; assay type: functional
Enterococcus faecalis [33] = test: Bactericidal activity against vancomycin-susceptible Enterococcus faecalis ATCC 29212 assessed as change in bacterial count at 16 ug/ml by time-kill assay; assay type: functional
Enterococcus faecium [34] = test: Bactericidal activity against vancomycin-resistant Enterococcus faecium ATCC 51559 expressing vanA gene assessed as change in bacterial count at 16 ug/ml by time-kill assay; assay type: functional
[35] = Cmax in healthy human male at 600 mg, po every 12 hrs by LC/MS/MS analysis; assay type: ADME, organism-based; design: dose 600 mg, route oral; settings: in vivo
Enterococcus faecium [36] = test: Bactericidal activity against vancomycin-resistant Enterococcus faecium 1059060 expressing vanA gene assessed as change in bacterial count at 16 ug/ml by time-kill assay; assay type: functional
Enterococcus faecalis [37] = test: Bactericidal activity against vancomycin-resistant Enterococcus faecalis 1058946 expressing vanA gene assessed as change in bacterial count at 16 ug/ml by time-kill assay; assay type: functional
Enterococcus faecium [38] = test: Bactericidal activity against vancomycin-resistant Enterococcus faecium 1119175 expressing vanB gene assessed as change in bacterial count at 16 ug/ml by time-kill assay; assay type: functional
Enterococcus faecalis [39] = test: Bactericidal activity against vancomycin-resistant Enterococcus faecalis ATCC 51299 expressing vanB gene assessed as change in bacterial count at 16 ug/ml by time-kill assay; assay type: functional

`CCCCCCCCCC(=O)N[C@@H](Cc1c[nH]c2ccccc12)C(=O)N[C@H](CC(N)=O)C(=O)N[C@@H](CC(=O)O)C(=O)N[C@@H]1C(=O)NCC(=O)N[C@@H](CCCN)C(=O)N[C@@H](CC(=O)O)C(=O)N[C@H](C)C(=O)N[C@@H](CC(=O)O)C(=O)NCC(=O)N[C@H](CO)C(=O)N[C@@H]([C@H](C)CC(=O)O)C(=O)N[C@@H](CC(=O)c2ccccc2N)C(=O)O[C@@H]1C` gave a log10CFU/ml (Enterococcus faecalis [1]) of 1.9, an MIC (Enterococcus faecium [2]) of 2 µg/mL (≈ 1.23 µM) and a log10CFU/ml (Enterococcus faecalis [3]) of 2.5. The log10CFU/ml (Enterococcus faecium [4]) was -0.54, the MIC (Enterococcus faecium [5]) was 64 µg/mL and the log10CFU/ml (Enterococcus faecalis [6]) was 1.4. For the same molecule, the Ratio (Enterococcus faecalis [7]) was 16, the MIC (Enterococcus faecalis [8]) was 32 µg/mL and the Ratio (Enterococcus faecium [9]) was 16. For the same molecule, the Ratio (Enterococcus faecalis [10]) was 16, the log10CFU/ml (Enterococcus faecalis [11]) was -0.4 and the Ratio (Enterococcus faecalis [12]) was 8. It also gave an MIC (Enterococcus faecalis [13]) of 32 µg/mL, an MIC (Enterococcus faecium [14]) of 4 µg/mL (≈ 2.47 µM) and a fraction unbound at 24 h [15] of 0.08. It also gave an MIC (Enterococcus faecalis [16]) of 16 µg/mL, an MIC (Enterococcus faecium [17]) of 8 µg/mL and an MIC (Enterococcus faecium [18]) of 32 µg/mL. The MIC (Enterococcus faecium [19]) was 1 µg/mL (≈ 0.617 µM), the log10CFU/ml (Enterococcus faecium [20]) was -0.78 and the log10CFU/ml (Enterococcus faecium [21]) was 1.4. For the same molecule, the MIC (Enterococcus faecalis [22]) was 2 µg/mL (≈ 1.23 µM), the log10CFU/ml (Enterococcus faecium [23]) was 2.3 and the Ratio (Enterococcus faecium [24]) was 8. It also gave a log10CFU/ml (Enterococcus faecalis [25]) of 2.3, a Cmax [26] of 64000 ng/mL and an MIC (Enterococcus faecalis [27]) of 2 µg/mL (≈ 1.23 µM). For the same molecule, the log10CFU/ml (Enterococcus faecium [28]) was 2.4, the Ratio (Enterococcus faecium [29]) was 16 and the MIC (Enterococcus faecalis [30]) was 2 µg/mL (≈ 1.23 µM). It also gave a log10CFU/ml (Enterococcus faecalis [31]) of 0.26 and a log10CFU/ml (Enterococcus faecium [32]) of 1.5.
Work on `CC(=O)NC[C@H]1CN(c2ccc(N3CCOCC3)c(F)c2)C(=O)O1` [LINEZOLID] yielded a log10CFU/ml (Enterococcus faecalis [1]) of 0.13, an MIC (Enterococcus faecium [2]) of 1 µg/mL (≈ 2.96 µM) and a log10CFU/ml (Enterococcus faecalis [3]) of 0.78. The log10CFU/ml (Enterococcus faecium [4]) was -0.35, the MIC (Enterococcus faecium [5]) was 2 µg/mL and the log10CFU/ml (Enterococcus faecalis [33]) was 0.11. It also gave a log10CFU/ml (Enterococcus faecium [34]) of -2, a Cmax [35] of 16000 ng/mL and an MIC (Enterococcus faecium [14]) of 2 µg/mL (≈ 5.93 µM). The MIC (Enterococcus faecium [17]) was 1 µg/mL, the log10CFU/ml (Enterococcus faecium [36]) was -0.42 and the MIC (Enterococcus faecium [18]) was 2 µg/mL. The MIC (Enterococcus faecium [19]) was 1 µg/mL (≈ 2.96 µM), the log10CFU/ml (Enterococcus faecalis [37]) was 0.08 and the log10CFU/ml (Enterococcus faecium [38]) was -0.72. For the same molecule, the log10CFU/ml (Enterococcus faecium [23]) was 0.2, the log10CFU/ml (Enterococcus faecalis [39]) was -0.35 and the log10CFU/ml (Enterococcus faecalis [25]) was -0.5. The log10CFU/ml (Enterococcus faecium [28]) was -0.63.
